From a melting point compilation (Tetko et al.; mined from patent text by program, amines drawn as free bases though some values may be those of a salt)

SMILES | melting point
Nc1nc2c(c(Nc3cccc(Br)c3)n1)-c1ccccc1C2 | 233 to 236 °C
Clc1cc(Cl)c(CBr)c(Cl)c1 | 51 to 52 °C
Cc1c(C#N)c(NC(=O)c2ccccc2)n(C(C)c2ccccc2)c1C (stereo unspecified) | 218 to 221 °C
O=C(O)c1cccc(CNC(=O)C2Cc3ccccc3N2S(=O)(=O)c2ccc(-c3cccc(C(F)(F)F)c3)cc2)c1 (stereo unspecified) | 96 °C
O=C(O)CCc1oc(N2CCCCC2)nc1-c1ccc(Cl)cc1 | 185 to 186 °C
CCOC(=O)N1CCN(c2ccc(C3=NNC(=O)CC3C)cc2F)CC1 (stereo unspecified) | 193 to 194 °C
CCCCC1(CC)CSc2ccccc2N(c2ccccc2)C1=O (stereo unspecified) | 90 °C
COC(=O)Cc1cc([N+](=O)[O-])ccc1OC | 92 °C
O=C(O)CCc1oc(SCc2cccnc2)nc1-c1ccc(Cl)cc1 | 129 to 130 °C
O=C(O)c1cccc(-c2ccc3c(c2)C(c2ccc(Cl)cc2Cl)CC3)c1 (stereo unspecified) | 157 to 158 °C
Clc1ccc2nc3c(nc2c1)-c1cccc2cccc-3c12 | 224 to 225 °C
CCOC(=O)C=Cc1ccc(OCCCCOCc2ccccc2)nc1NC(=O)C(C)(C)C | 75 to 76 °C
CCc1cnc(N2CCC(c3nc4cc(-c5ccc(S(C)(=O)=O)cc5F)ccc4o3)CC2)nc1 | 247 to 250 °C
N#Cc1c2ccccc2nc2ccc(Cl)cc12 | 208 °C
COc1nc(N2CCOCC2)cnc1NS(=O)(=O)c1cccc(Cl)c1Cl | 167 to 168 °C
CC(C)Cn1c(CNC(=O)OC(C)(C)C)c(-c2ccccc2F)c2cc(C#N)ccc2c1=O | 191 to 192 °C
Cc1cnc2ccc(NC3=NCCN3)c(Br)c2n1 | > 260 °C
Cc1ccc(S(=O)(=O)NCC(CC(C)C)NS(=O)(=O)c2ccc(C)cc2)cc1 (stereo unspecified) | 138 to 140 °C
CC(C#N)(C(N)=O)c1cccc(Oc2ccccc2)c1 (stereo unspecified) | 123 to 125 °C
COCCNC(=O)c1cc(F)cc(-c2cccc3cc(Cc4cccc(C(F)(F)F)c4)sc23)c1 | 103 to 104 °C
NC(=O)c1nnn(Cc2cc(Cl)c(Sc3ccc(Cl)cc3)c(Cl)c2)c1N | 180 to 182 °C
Cc1ccc(C2CC(=O)CC(c3ccc(C)cc3)N2C)cc1 (stereo unspecified) | 105 to 107 °C
COC(=O)c1csc2c(=O)cc(C(F)(F)F)oc12 | 148 to 158 °C
COC(=O)CCCc1cc2cc(Cl)ccc2n1S(=O)(=O)c1cccc2nc(C)sc12 | 129 °C

SMILES | melting point
CCN1CC(=O)c2ccc3ccccc3c2S1(=O)=O | 146 to 147 °C
CCCCc1nc(Cl)c(C=O)n1Cc1ccc(-c2ccccc2-c2nc(=O)o[nH]2)cc1 | 181 to 183 °C
CCCCOc1ccc2nc(C(=O)O)c(OCc3ccccc3)cc2c1 | 108 to 110 °C
COC(=O)c1nc(-c2ccc(Cl)c(OC)c2F)nc(N)c1Br | 173 to 175 °C
COc1cc(OC)c2sc(-c3ccc([N+](=O)[O-])cc3)nc2c1 | 238 to 239 °C
CC(C)N(C[C@@H](O)[C@@H](C(=O)[C@H](CC(N)=O)NC(=O)c1ccccc1)C(N)c1ccccc1)NC(=O)OC(C)(C)C (stereo partly specified) | 182 to 185 °C
CCC(=O)OCCN1CCc2cc(Nc3ncc(Cl)c(Nc4ccccc4S(=O)(=O)N(C)C)n3)c(OC)cc2CC1 | 40 °C
CC(=O)c1cc(S(=O)(=O)c2ccccc2)ccc1OC[C@@H]1CO1 | 112 to 114 °C
CN1CCC(OC2c3ccccc3CCn3c2nc(I)c3C#N)CC1 (stereo unspecified) | 195 °C
Nc1c(F)cc(Cn2ccnc2S)cc1F | 181 to 184 °C
O=C(O)CCC(=O)OCCc1ccccc1 | 60 to 62 °C
CCCCCN1C(=O)C(CCC#N)(NC(=O)c2ccc(Cl)c(Cl)c2)c2ccccc21 (stereo unspecified) | 79 to 84 °C
CC(C)(C)N(NC(=O)c1ccccc1)C(=O)c1cccnc1 | 60 to 63 °C
CCCc1c(CSc2nnc(SCC(=O)O)s2)ccc(C(C)=O)c1O | 116 to 118 °C
O=C(O)CCCc1cc2nc(Cl)ccc2n1S(=O)(=O)c1cc(Cl)ccc1Cl | 86 to 89 °C
COc1cc(C(=O)C#CCOC(=O)c2cc(OC)c(OC)c(OC)c2)cc(OC)c1OC | 106 to 108 °C
Clc1nc2cc(Br)c(Br)cc2[nH]1 | 228 °C
Cn1c(=O)c2ncn3c2n(c1=O)CC=C3c1cccc(C(F)(F)F)c1 | 287 to 290 °C
Cc1ccc(NC(=O)NCCN2CCN=C2c2ccccc2Cl)cc1 | 108 to 111 °C
COc1ccc(CNc2nc(Cl)cc(Cn3c(C(=O)c4cc(C)cc(C#N)c4)c(C(C)C)c(=O)[nH]c3=O)n2)cc1 | 337 to 338 °C
CCOC(=O)C=Cc1ccc(C(=O)Cc2ccccc2)cc1 | 110 to 111 °C
COc1ccc(C(=O)N(C)C2N(C)C(c3ccc(F)cc3)=NC2(C(F)(F)F)C(F)(F)F)cc1 (stereo unspecified) | 136 to 137 °C
N#Cc1cc(-c2nccs2)[nH]c1C(CC1CCOCC1)c1ccc(S(=O)(=O)C2CC2)cc1 (stereo unspecified) | 114 to 116 °C
Cc1nc(-c2ccc(C(F)(F)F)cc2)[nH]c1CN1CCN(C(c2ccccc2)c2ccccc2)CC1 | 244 °C

SMILES | melting point
COC(=O)c1cccc2[nH]c(=O)c(C(=O)c3ccccc3)c(O)c12 | 263 to 265 °C
O=C(NCCN1CCCC1)c1ccc(OCc2ccc(-c3ccccc3)cc2)cc1 | 173 to 175 °C
CCCC(=O)Nc1ccc(O)c(-c2ccno2)c1 | 238 °C
CC(=O)Nc1cccc2c1C(=O)c1c-2n[nH]c1-c1ccc(N2CCCCC2)cc1 | 291 °C
COC(=O)C1CCC2C3CCC4CC(=O)CCC4(C)C3C(NCCC(C)C)CC12C (stereo unspecified) | 86 to 89 °C
O=C(Nc1ccc2ncccc2c1)OCc1ccccc1 | 122 °C
O=C1CCC(N2Cc3c(OCc4ccc(CN5CCS(=O)CC5)cc4)cccc3C2=O)C(=O)N1 (stereo unspecified) | 170 to 172 °C
COCCc1nc2c(N)nc3ccccc3c2n1CCCCN1CCCS1(=O)=O | 156 to 158 °C
Cc1cc(C=C2SC(=S)NC2=O)cc(C(C)(C)C)c1O | 210 to 216 °C
OCc1ccc2ccn(C3CCN(CCc4ccccc4F)CC3)c2c1 | 117 to 118 °C
CCOc1cc(C(=O)N2CCc3cc(O)ccc3C2)cc(OCC)c1OCC | 158 °C
COc1cccc(OC)c1-c1cc2c(ccn2C)c2c1C(=O)NC2=O | 285 to 288 °C
CCOC(=O)c1cc2c(C)ccc(N(CC)S(=O)(=O)c3cccs3)c2[nH]1 | 148 to 149 °C
Cc1ccc2cccc(OCc3c(Cl)ccc(C4OCCO4)c3Cl)c2n1 | 82 to 85 °C
COc1nc(OC)nc(Oc2ccccc2C(=O)O)n1 | 152 °C
CN1Cc2c(C#CC(C)(C)O)ncn2-c2cccc(Cl)c2C1=O | 194 to 195 °C
CNC(Cc1ccc(Cl)cc1[N+](=O)[O-])c1ccsc1C (stereo unspecified) | 44 to 46 °C
O=C(Nc1cc(S(=O)(=O)NCCO)sc1Cl)c1cnn2c(C(F)F)cc(-c3ccc(C(F)(F)F)cc3)nc12 | 209 °C
Cc1nnc2n1-c1sc(CCc3ccc(-c4ccccc4)cc3)cc1C(c1ccccc1Cl)=NC2 | 163 to 165 °C
O=S1(=O)CCN(c2nc(Cl)nc3c(Cl)ncnc23)CC1 | 270 to 273 °C
O=C(O)COc1cccc(NCc2nc(-c3ccccc3)c(-c3ccccc3)o2)c1 | 146 to 151 °C
CCNS(=O)(=O)c1ccc(Cl)c(C)c1C#N | 85 to 90 °C
O=C(c1ccn2c1CSC2c1cccnc1)c1c[nH]c2cc(Cl)ccc12 (stereo unspecified) | 263 to 265 °C
CC(=O)OC(OC(C)=O)c1cccc(C(OC(C)=O)OC(C)=O)c1 | 110 to 130 °C

SMILES | melting point
CCOC(=O)C1(S(=O)(=O)c2ccc(OCc3ccccc3)cc2)CCN(Cc2ccccc2)CC1 | 89 °C
OCc1ccc(-c2nn(Cc3ccccc3)c3ccccc23)cc1 | 110 to 112 °C
CCOC(=O)c1nc(-c2cc(Cl)c(OC)c(OC)c2)cs1 | 92 to 94 °C
Cn1cc(C2=C(c3cn(CCC(N)=O)c4ccccc34)C(=O)NC2=O)c2ccccc21 | 243 to 247 °C
CNC(=O)Nc1c(C)nn(-c2cc(OC(C)C)c(Cl)cc2F)c1C | 184 to 185 °C
CCc1cccc(CC(=O)O)c1OCCCc1cn(-c2ccc(C(F)(F)F)cn2)nc1C(C)(C)C | 98 to 99 °C
CN(CCCCC(=O)O)c1ccc([N+](=O)[O-])cc1C=O | 107 to 108 °C
Nc1ccc(C=CC(=O)N2CCc3c([nH]c4ccccc34)C2c2ccc3c(c2)CCO3)cc1 (stereo unspecified) | 183 °C
C=CCc1c2c(cc(OCc3ccccc3)c1C(C)(C)C)CC(C)(C)O2 | 73 to 74 °C
Cn1cc(Cc2cc3cc(C(F)(F)F)ccc3n2S(=O)(=O)c2cccc(C(C)(C)C)c2)cc1C(=O)O | 160 °C
CCc1c(-c2ccccc2)oc2c(C(=O)NCCCN3CCN(c4ccccc4OC)CC3)cccc2c1=O | 133 to 136 °C
COc1cc2c(cc1Cl)CC(C)OC2c1ccc([N+](=O)[O-])cc1 (stereo unspecified) | 118 to 120 °C
CCCc1c(OCc2ccc(C(=O)OCC)c(OCC)c2)ccc(C(C)=O)c1O | 92 to 94 °C
O=C(O)CCCc1ccc(NS(=O)(=O)c2ccc(Br)cc2)cn1 | 188 to 190 °C
Cc1nc(N2C(=O)N(Cc3ccc(F)cc3)CC2O)sc1C(=O)NCc1cccnc1 (stereo unspecified) | 64 to 66 °C
CC(=O)OCc1nc(C(C)C)c(Sc2cc(Cl)cc(Cl)c2)n1C | 92 to 93 °C
COc1ccc(N2CCN(c3ccc(OC)nc3-c3ccc(C)cc3)CC2)cc1 | 143 to 146 °C
CC(=Cc1ccccc1Cl)C(O)(Cn1cncn1)c1ccc(Cl)cc1 (stereo unspecified) | 141 to 143 °C
Cc1c(NC(=O)c2ccc(-c3ccc(F)cc3)cc2)ccc2cc(CN3CCOCC3)cnc12 | 176 to 178 °C
O=C(O)C1=Cc2c(F)ccc(Br)c2OC1C(F)(F)F (stereo unspecified) | 222 to 223 °C
CC1(C)CCC(C)(C)c2cc(C(COc3ccc(C(=O)O)c(O)c3)=NO)ccc21 | 220 to 222 °C
CC1(C)CC(=O)C=C(c2ccc(OCC(=O)O)c(Cl)c2Cl)C1 | 178 to 180 °C
COc1cc(NS(=O)(=O)CCCCl)cc(OC)c1 | 68 to 71 °C
CCCN(CC)C(C)CN1CCc2c(c(=O)oc3cc(OC)ccc23)C1 (stereo unspecified) | 100 to 101 °C
